Measured values published in patent US20100115666A1, “Transcriptional Repressors of Cytokinin Signaling and Their Use” (FREIE UNIVERSITÄT BERLIN, priority 2006, published 2010).

Tests used:
ARR6:GUS reporter gene = experiment: Protoplast transactivation assay (ARR6:GUS reporter); assay type: cell-based, Arabidopsis
Description: The ARR6:GUS reporter construct and a 35S:GUS construct without any effector plasmid were used as controls. Protoplasts were co-transfected with the ARR6:GUS reporter and an effector plasmid expressing ARR1, ARR1-SRDX or both effector plasmids simultaneously. […] Variations in transformation efficiencies were normalized by using a 35S:NAN reporter gene construct. The mean values and SD of four independent transfection assays were calculated and shown as relative GUS/NAN activity units.
Protoplast isolation and transformation was carried out according to the method described by Hwang and Sheen (Hwang and Sheen, 2001). For isolation of mesophyll protoplasts 4-5 weeks old rosette leaves were used. Transformation of protoplasts was mediated by 40% PEG solution. […] For the transactivation assays, 9 μg of the ARR6: GUS reporter plasmid and 14 μg of each effector plasmid carrying 35S:ARR1 and 35S:ARR1-SRDX were used. For normalization 3 μg of a plasmid harboring the 35S:NAN gene (Kirby and Kavanagh, 2002) was added. Both GUS and NAN enzyme assays were performed according to Kirbay and Kavanagh (Kirby and Kavanagh, 2002). The ratios of GUS and NAN activities were calculated as relative GUS/NAN activity units.

detached leaves = experiment: Chlorophyll retention assay in detached leaves; assay type: in vivo, Arabidopsis thaliana; conditions: wild type leaves, 0.1 μM BA, 10 d dark
Description: (b) Quantification of chlorophyll retention by cytokinin. […] Three independent plates with five leaves per plate were examined for each concentration. Two chlorophyll measurements were taken per plate. The chlorophyll content was determined spectrophotometrically as described in Example 3.5. Error bars represent SD (n=15). The chlorophyll retention assay was performed as described by ([…] et al., 2006). Either the sixth or the seventh leaf was detached from 24-days-old in vitro grown seedlings and floated on distilled water supplemented with 0, 0.01, 0.1, 0.5, 1.0 or 5.0 μM BA in 0.1% DMSO in small Petri dishes for 10 d at RT in the dark. Three replicates of each genotype, each consisting of five leaves were taken for measurement. Chlorophyll was extracted with methanol for 24 h in the dark. The amount of chlorophyll was measured with a spectrophotometer, normalized to fresh weight, and the chlorophyll content was calculated as described (Porra et al., 1989).

Arabidopsis seedlings = experiment: Cytokinin sensitivity of roots (root elongation, lateral root formation); assay type: in vivo, Arabidopsis thaliana
Description: ([…] plants are less sensitive to cytokinin inhibition of root elongation. Root elongation was measured for each line between 4 and 9 DAG. The root elongation of each line is expressed as percentage of its DMSO control. Results shown for each line represent means from at least three independent replicates. ([…] plants are less sensitive to cytokinin inhibition of lateral root formation. The number of lateral roots was determined 9 DAG. Error bars represent SD (n>15). Arabidopsis seeds were grown on vertical plates containing different concentration of BA ranging from 0.01 μM to 1.0 mM. 0.1% dimethyl sulfoxide (DMSO) was included as vehicle control. The primary root lengths were marked on day four and nine after germination. Photographs were taken with a digital camera (Nikon Coolpix 8800) and root lengths were determined using Scion Image program version beta 4.02 (www.scioncorp.com). The number of lateral roots emerging from the epidermis of the primary root was counted under a microscope […]. The experiments were performed using three independent replicates and 15 seedlings in each replicate. To investigate the cytokinin response in roots, seedlings of wild type and the 35[…] lines were grown on media containing increasing amounts of cytokinin. […] The relative difference in root length increased with increasing cytokinin concentrations (FIG. 7a). […]

## C/C(=C\CNc1ncnc2nc[nH]c12)CO [cytokinin, trans-zeatin]
ARR6:GUS reporter gene; ARR6:GUS reporter without effector, 500 nM trans-zeatin, 16 h
  induction of the reporter gene expression compared to the non-induced condition: more than threefold induction
ARR6:GUS reporter gene; with 35S:ARR1 effector, 500 nM trans-zeatin
  further increase of the GUS activity on addition of cytokinin: twofold increase

## c1ccc(CNc2ncnc3[nH]cnc23)cc1 [BA]
Detached leaves
  chlorophyll retention: strongly increased chlorophyll retention
Arabidopsis seedlings; wild type plants, 1 μM BA
  root length reduction compared to control: 75%
Arabidopsis seedlings; wild type, 0.1 μM BA
  lateral root formation: unable to produce lateral roots

B1: ARR1: Arabidopsis thaliana B-type response regulator ARR1 (SEQ ID NO: 12), expressed under the 35S promoter (protein, listed as Arabidopsis thaliana)
chain: MMNPSHGRGLGSAGGSSSGRNQGGGGETVVEMFPSGLRVLVVDDDPTCLMILERMLRTCLYEVTKCNRAEMALSLLRKNKHGFDIVISDVHMPDMDGFKLLEHVGLEMDLPVIMMSADDSKSVVLKGVTHGAVDYLIKPVRMEALKNIWQHVVRKRRSEWSVPEHSGSIEETGERQQQQHRGGGGGAAVSGGEDAVDDNSSSVNEGNNWRSSSRKRKDEEGEEQGDDKDEDASNLKKPRVVWSVELHQQFVAAVNQLGVEKAVPKKILELMNVPGLTRENVASHLQKYRIYLRRLGGVSQHQGNLNNSFMTGQDASFGPLSTLNGFDLQALAVTGQLPAQSLAQLQAAGLGRPAMVSKSGLPVSSIVDERSIFSFDNTKTRFGEGLGHHGQQPQQQPQMNLLHGVPTGLQQQLPMGNRMSIQQQIAAVRAGNSVQNNGMLMPLAGQQSLPRGPPPMLTSSQSSIRQPMLSNRISERSGFSGRNNIPESSRVLPTSYTNLTTQHSSSSMPYNNFQPELPVNSFPLASAPGISVPVRKATSYQEEVNSSEAGFTTPSYDMFTTRQNDWDLRNIGIAFDSHQDSESAAFSASEAYSSSSMSRHNTTVAATEHGRNHQQPPSGMVQHHQVYADGNGGSVRVKSERVATDTATMAFHEQYSNQEDLMSALLKQV
ARR6:GUS reporter gene; co-transfection with ARR1 under 35S promoter, absence of cytokinin
  GUS activity: strong increase in GUS activity
